# Experimental data published in PubChem BioAssay (NCI).
#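 GI50: concentration for 50% inhibition of growth. At the TGI there is no net growth.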
# Assays:
# Assay in all cases: inhibition of tumour cell growth, NCI panel, 384-well format
# [1] = system: UACC-257 melanoma
# [2] = system: MCF7 breast
# [3] = system: MDA-MB-435 melanoma
# [4] = system: SF-539 CNS
# [5] = system: SK-MEL-2 melanoma
# [6] = system: SN12C renal
# [7] = system: OVCAR-4 ovarian
# [8] = system: RXF 393 renal
# [9] = system: IGROV1 ovarian
# [10] = system: SK-OV-3 ovarian
# [11] = system: LOX IMVI melanoma
# [12] = system: SF-268 CNS
# [13] = system: MDA-MB-468 breast
# [14] = system: U251 glioblastoma
# [15] = system: SF-295 CNS
# [16] = system: UACC-62 melanoma
# [17] = system: ACHN renal
# [18] = system: COLO 205 colon
# [19] = system: CAKI-1 renal
# [20] = system: SK-MEL-28 melanoma
# [21] = system: SNB-75 CNS
# [22] = system: OVCAR-5 ovarian
# [23] = system: KM12 colon
# [24] = system: PC-3 prostate
# [25] = system: RPMI-8226 leukemia
# [26] = system: UO-31 renal
# [27] = system: SW-620 colon
# [28] = system: OVCAR-8 ovarian
# [29] = system: SNB-19 CNS
# [30] = system: NCI/ADR-RES ovarian
# [31] = system: A498 renal
# [32] = system: MALME-3M melanoma
# [33] = system: MOLT-4 leukemia
# [34] = system: HCC-2998 colon
# [35] = system: NCI-H522 lung
# [36] = system: NCI-H226 lung
# [37] = system: HCT-15 colon
# [38] = system: HL-60(TB) leukemia
# [39] = system: T-47D breast
# [40] = system: SK-MEL-5 melanoma
# [41] = system: DU-145 prostate
# [42] = system: HT29 colon
# [43] = system: BT-549 breast
# [44] = system: SR leukemia
# [45] = system: OVCAR-3 ovarian
# [46] = system: HCT-116 colon
# [47] = system: NCI-H23 lung
structure (smiles),measurement,setting,value
C[C@@H](C(=O)Nc1ccc(Cl)cc1)C1CCC(c2ccnc3ccc(F)cc23)CC1 (some centres undefined),GI50,[1],13.7 µM
same,TGI,[1],31.4 µM
same,GI50,[2],7.97 µM
same,TGI,[2],25.7 µM
same,GI50,[3],16.9 µM
same,TGI,[3],36.7 µM
same,GI50,[4],14.2 µM
same,TGI,[4],27.5 µM
same,GI50,[5],3.07 µM
same,TGI,[5],10.2 µM
same,GI50,[6],12.7 µM
same,TGI,[6],28.2 µM
same,GI50,[7],13.9 µM
same,TGI,[7],50.2 µM
same,GI50,[8],6.04 µM
same,TGI,[8],20.9 µM
same,GI50,[9],8.55 µM
same,TGI,[9],> 47.7 µM
same,GI50,[10],16.3 µM
same,TGI,[10],42.7 µM
same,GI50,[11],8.67 µM
same,TGI,[11],21.2 µM
same,GI50,[12],6.42 µM
same,TGI,[12],22.7 µM
same,GI50,[13],2.17 µM
same,TGI,[13],8.1 µM
same,GI50,[14],9.96 µM
same,TGI,[14],26.2 µM
same,GI50,[15],10 µM
same,TGI,[15],31.1 µM
same,GI50,[16],14.9 µM
same,TGI,[16],29.3 µM
same,GI50,[17],9.63 µM
same,TGI,[17],41.4 µM
same,GI50,[18],17.4 µM
same,TGI,[18],> 62.3 µM
same,GI50,[19],19.2 µM
same,TGI,[19],54.7 µM
same,GI50,[20],20.6 µM
same,TGI,[20],> 92 µM
same,GI50,[21],14.7 µM
same,TGI,[21],37.9 µM
same,GI50,[22],13 µM
same,TGI,[22],35.3 µM
same,GI50,[23],5.81 µM
same,TGI,[23],19.8 µM
same,GI50,[24],5.72 µM
same,TGI,[24],19 µM
same,GI50,[25],2.58 µM
same,TGI,[25],7.6 µM
same,GI50,[26],15.8 µM
same,TGI,[26],83.2 µM
same,GI50,[27],8.3 µM
same,TGI,[27],22.6 µM
same,GI50,[28],10.4 µM
same,TGI,[28],25.8 µM
same,GI50,[29],17.5 µM
same,TGI,[29],52.8 µM
same,GI50,[30],5.62 µM
same,TGI,[30],22 µM
same,GI50,[31],5.31 µM
same,TGI,[31],21.1 µM
same,GI50,[32],15.3 µM
same,TGI,[32],37.5 µM
same,GI50,[33],2.22 µM
same,TGI,[33],6.85 µM
same,GI50,[34],4.23 µM
same,TGI,[34],15.9 µM
same,GI50,[35],3.24 µM
same,TGI,[35],15.9 µM
same,GI50,[36],12.2 µM
same,TGI,[36],28 µM
same,GI50,[37],11.8 µM
same,TGI,[37],25.6 µM
same,GI50,[38],1.35 µM
same,TGI,[38],2.9 µM
same,GI50,[39],4.42 µM
same,TGI,[39],25.2 µM
same,GI50,[40],4.31 µM
same,TGI,[40],16.2 µM
same,GI50,[41],8.74 µM
same,TGI,[41],33.2 µM
same,GI50,[42],9.74 µM
same,TGI,[42],23.1 µM
same,GI50,[43],7.14 µM
same,TGI,[43],20.6 µM
same,GI50,[44],0.584 µM
same,TGI,[44],1.46 µM
same,GI50,[45],7.15 µM
same,TGI,[45],19.9 µM
same,GI50,[46],6.31 µM
same,TGI,[46],20.4 µM
same,GI50,[47],3.76 µM
same,TGI,[47],16 µM
